Experiments:
[1] = system: Horseradish Peroxidase (HRP); test: Activity of conjugated HRP detected with ABTS at 405 nm; type: biochemical; settings: 0.5 μg/mL HRP, 4 hours incubation, after washing off free HRP
Experimental: NanoP^3 was collected from the nanoparticle collector under sterile conditions in a tissue culture hood with RT-PCR Grade water. The concentration of nanoparticles was measured by NanoSight LM10. Nanoparticles were then conjugated to desired antibodies (Goat anti-Rat IgG-Cy5; abcam ab6565; and Goat anti-Rabbit IgG; abcam ab150089 at 1:100 dilution), drugs (Doxorubicin: Sigma-Aldrich, D1515 at 100 μg/ml and Paclitaxel-Oregon Green 488, Invitrogen P22310 at 5 μg/mL) or proteins (Peroxidase from Horseradish; Sigma-Aldrich HRP; P6782 at 0.5 μg/mL) for up to 16 hours at 4° C., protected from light. Conjugation of HRP to 150 nm gold nanoparticles was performed (Cytodiagnostics; G-150) in an identical fashion. The samples were gently agitated using Bio RS-24 mini-rotator. […] The fluorescent intensity was measured using a plate reader, the Ex/Em were set in accordance to the fluorescent dye tag on each antibody or drug. […] For detection of HRP, conjugated nanoparticles and respective controls were incubated with ABTS (Sigma-Aldrich; A1888) and hydrogen peroxide (Merck; 386790) until colour was visible and measured at 405 nm. […]
Nanoparticles of nanoP^3 and gold (GNPs) were conjugated with horseradish peroxidase (HRP). These were detected by incubation with 2,2′-azino-bis(3-ethylbenzothiazoline-6-sulphonic acid) (ABTS). […]

mice = test: IVIS fluorescence imaging of ICG after tail vein injection; settings: mouse, in vivo
Experimental: In another animal experiment, mice were divided randomly into 3 groups: • 1) nanoP^3 only; • 2) nanoP^3 and ICG; or • 3) ICG only.
Following closure of the incision with silk sutures, each mouse was administered with 100 μL of the corresponding sample groups via tail vein injection: nanoP^3 control (9×10^9 nanoP^3), nanoP^3-ICG (9×10^9 nanoP^3 with 2.5 μg of ICG/10^9 nanoP^3) or ICG control (22.5 μg). Non-invasive imaging using IVIS was carried out for detection of fluorescence at Ex/Em=780 nm/820 nm.

[2] = Binding kinetics of ICG to nanoP^3; type: physicochemical
Experimental: The binding kinetics associated with the simple nanoP^3 conjugation process can be assessed by measuring the amount of bound cargo at different incubation time points and temperatures. NanoP^3 material was conjugated with the precise amount of indocyanine green (ICG) which was calculated in Example 5 to saturate the nanoparticle surface at a monolayer, i.e. 1.9×10^6 ICG molecules on a single nanoP^3 particle (99 nm radius). […] For this experiment, the plasma parameters were set at Q=3, 10 and 3 sccm for acetylene, nitrogen and argon, 150 mTorr and 50 W. The incubation of nanoP^3 (10^9 nanoP^3/mL) with ICG was performed at room temperature, in RT-PCR grade water (pH=7) for 1 hour.

| Molecule | HRP activity (absorbance at 405 nm with ABTS) [1] | fluorescence by IVIS at Ex/Em=780 nm/820 nm (mice) | time to surface saturation ([2]; both 24° C. and 4° C.) | total cargo immobilized on nanoP^3 within first 30 seconds ([2]; incubation at 4° C.) | total cargo immobilized on nanoP^3 within first 30 seconds ([2]; incubation at 24° C.) |
| --- | --- | --- | --- | --- | --- |
| Horseradish Peroxidase [HRP alone] | below background levels of activity |  |  |  |  |
| CC1(C)C(/C=C/C=C/C=C/C=C2\N(CCCCS(=O)(=O)[O-])c3ccc4ccccc4c3C2(C)C)=[N+](CCCCS(=O)(=O)[O-])c2ccc3ccccc3c21.[Na+] [ICG, sodium 4-[2-[(1E,3E,5E,7Z)-7-[1,1-dimethyl-3-(4-sulfonatobutyl)benzo[e]indol-2ylidene]hepta-1,3,5-trienyl]-1,1-dimethylbenzo[e]indol-3-ium-3-yl]butane-1-sulfonate] |  | absent | less than 5 minutes | 60% | 90% |

Reference: patent US12076417B2, “Plasma-derived nanoparticles” (NANOMEDX, INC., priority 2016, dated 2024)
